From paper PMC12278645, “Design, synthesis, and antitumor activity of novel thioheterocyclic nucleoside derivatives by suppressing the c-MYC pathway” (Acta Pharmaceutica Sinica. B, 2025)

Assays:
HCT116 cells [1] = experiment: CCK-8 anti-proliferation assay, HCT116; type: cell-based, human; conditions: Homo sapiens, HCT-116, 48 h, CCK-8, 48 h, mean ± SD, three independent experiments
Procedure: Tumor cell anti-proliferation activities were determined by cell counting kit-8 (CCK-8) assay.
(§1) MCF-7, A375, and HeLa cells were cultured in DMEM, HCT116 cells were cultured in McCoy's 5A medium, and DU145 and CT26 were cultured in RPMI 1640 with 10% FBS, 1% penicillin-streptomycin solution (10,000 U/mL penicillin and 10,000 μg/mL streptomycin) at 37 °C under 5% CO2. The cells were seeded in 96-well plates (4 × 10^3 cells/well) overnight and then treated with various concentrations (1–50 μmol/L) of the compound. After 48 h, the cell viability was measured by CCK-8 assay. The absorbance of each well was measured using a microplate reader (Multiskan FC, Thermo Fisher Scientific, Massachusetts, USA) at 450 nm wavelength. Assays were performed in triplicate. Compound concentrations that inhibited cell growth by 50% (IC50) were calculated from the dose–response curves of each cell line. Data are mean ± SD values from three independent experiments.

[2] = test system: MCF-7 (human breast cancer); experiment: CCK-8 anti-proliferation assay, MCF-7; type: cell-based; conditions: Homo sapiens, MCF7; CCK-8, 48 h, mean ± SD
Procedure: (§2) To evaluate their spectrum of anti-proliferative activity, further CCK-8 assays were carried out with the selected compounds (5a/5b, 8a/8b, 33a/33b, and 36a/36b) on MCF-7 (human breast cancer), A375 (human malignant melanoma), DU145 (human prostate cancer), and CT26 (mouse colon cancer) cell lines. The selected compounds had moderate to potent antitumor activity on the four cell lines, indicating their broad spectrum of antitumor activity (Table 5).
as §1

[3] = test system: DU145 (human prostate cancer); experiment: CCK-8 anti-proliferation assay, DU145; type: cell-based; conditions: Homo sapiens, DU-145; CCK-8, 48 h, mean ± SD
Procedure: as §2, §1

[4] = test system: CT26 (mouse colon cancer); experiment: CCK-8 anti-proliferation assay, CT26; type: cell-based; conditions: Mus musculus, CT26; CCK-8, 48 h, mean ± SD
Procedure: as §2, §1

HCT116 cells [5] = experiment: Wound healing assay; type: cell-based, human; conditions: 24 h
Procedure: HCT116 cells were seeded in 6-well plates (6 × 10^5 cells/well) to full confluence and then an artificial wound was created in the cell monolayer using a 200 μl pipette tip. Images of wound closure were captured at 0 and 24 h using a Leica DMIL fluorescence microscope (Leica Microsystems). The percentage of wound closure was calculated using Image J software.

HCT116 cells [6] = experiment: Cell cycle assay (PI, flow cytometry); type: cell-based, human; conditions: 48 h
Procedure: Cells were seeded in 6-well plates (5 × 10^5 cells/well). The following day, defined concentrations of compound 33a or 36b were added to the wells for 48 h at 37 °C with 5% CO2. The cells were collected and fixed in ice-cold 70% alcohol overnight. Then the cells were stained in propidium iodide (PI) dye for 15 min in the dark and the cell DNA contents were analyzed via flow cytometry (Becton, Dickinson Company, New Jersey, USA).

HCT116 cells [7] = experiment: Intracellular ROS measurement (DCFH-DA); type: cell-based, human; conditions: 48 h
Procedure: HCT116 cells were seeded in 96-well plates overnight and then the cells were treated with defined concentrations of compound 33a or 36b. In addition, cells were pretreated with 0.8 mmol/L NAC for 1 h. After 48 h, the cells were washed with PBS. DCFH-DA (100 μL, 100 μmol/L) was added to each well and incubated for 30 min at 37 °C, and the cells were washed twice with PBS. Finally, the cells were cultivated in a 100 μL culture medium and the fluorescence signals were detected with an EnVision® NexusTM Multi-Mode Microplate Reader or flow cytometry (Becton, Dickinson Company).

[8] = test system: c-MYC signal path in HCT116 cells; experiment: Western blot of c-MYC and downstream proteins; type: cell-based, human
Procedure: Whole protein was extracted and separated by polyacrylamide gel electrophoresis (SDS-PAGE) and transferred onto nitrocellulose membranes. Membranes were blotted with CDK1, Cyclin B1, Caspase-3, BAX, BCL-2, PARP-1, γ-H2AX, P53, ATF4, CHOP, PERK, ATP6, LC3, Beclin1, P62, β-Catenin, c-MYC, MAX, UPP1, GAPDH, β-Actin, and β-Tubulin primary antibodies. Protein band analyses were performed with ImageJ software and protein expression levels were presented as a percentage difference compared to control.

Pharmacokinetic analysis = type: in vivo, Sprague–Dawley rats; conditions: for clearance / half-life / Vd / Cmax / Tmax / AUC(0-inf): male, Sprague-Dawley, plasma; for clearance / half-life / Vd / Cmax / Tmax / AUC0-∞: rat; for Vd: read-out: Vss; for AUC(0-inf): heading: AUC0-∞, Table S5, rat
Procedure: All animal studies and procedures were approved by the Animal Ethics Committee of College of Chemistry and Chemical Engineering, Henan Normal University, China. Male Sprague–Dawley rats (220 ± 10 g, Shanghai Yuanxin Biological Co., Ltd., Shanghai, China) were used to evaluate drug pharmacokinetic properties. Briefly, compound 33a or 36b was dissolved in PBS containing 10% DMSO and 20% castor oil. Rats were treated with 1 mg/kg of compound 33a or 36b for intravenous injection and 2 mg/kg for oral intragastric administration. Blood samples were collected from each rat at 0, 0.083, 0.25, 0.5, 1, 2, 4, 6, 8, 12, and 24 h. Plasma was isolated from the blood samples by centrifugation (1200 rpm, 4 °C, 10 min. ThermoFisher Scientific, Thermo Electron LED GmbH, Zweigniederlassung Osterode Am Kalkberg, Osterode am Harz, Germany). Sample concentrations were determined by LC-MS/MS (API 4000, AB SCIEX) based on a standard curve. All data were calculated by Excel software.

c-MYC = c-MYC (Homo sapiens, UniProt P01106); experiment: Drug affinity responsive target stability (DARTS) assay; type: binding; parameters: HCT116 cells were lysed with mammalian protein extraction reagent (M-PER); endogenous in cells; host or cells: HCT116; conditions: HCT116 lysate, pronase, 0-640 μmol/L
Chain of c-MYC (P01106 whole entry): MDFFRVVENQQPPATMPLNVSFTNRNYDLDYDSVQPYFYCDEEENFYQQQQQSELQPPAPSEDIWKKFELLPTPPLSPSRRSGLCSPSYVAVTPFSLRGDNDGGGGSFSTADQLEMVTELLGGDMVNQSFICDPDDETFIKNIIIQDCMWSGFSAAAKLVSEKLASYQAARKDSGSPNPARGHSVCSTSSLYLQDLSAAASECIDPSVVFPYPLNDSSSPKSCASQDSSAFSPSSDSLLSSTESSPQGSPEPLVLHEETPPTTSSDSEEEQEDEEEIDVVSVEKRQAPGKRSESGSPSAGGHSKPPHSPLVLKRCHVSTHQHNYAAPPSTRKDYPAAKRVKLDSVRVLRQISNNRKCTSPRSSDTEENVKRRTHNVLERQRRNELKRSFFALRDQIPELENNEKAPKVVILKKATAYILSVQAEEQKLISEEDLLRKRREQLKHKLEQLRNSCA
Procedure: HCT116 cells were lysed with mammalian protein extraction reagent (M-PER), centrifuged, and quantified by BCA protein assay. […] Proteolysis was performed by adding pronase solution at a ratio of 1:3200 for 30 min at room temperature and then stopped by adding SDS-PAGE sample loading buffer and boiling at 100 °C for 5 min. c-MYC protein was analyzed by Western blot.

Row | SMILES | IC50 (HCT116 cells [1]) [µM] | IC50 [2] [µM] | IC50 [3] [µM] | IC50 [4] [µM] | wound healing (HCT116 cells [5]) | G2/M cells (HCT116 cells [6]) | ROS levels (HCT116 cells [7]) | protein levels of c-MYC, β-Catenin, MAX, P21 [8] | clearance (Pharmacokinetic analysis; IV, 1 mg/kg) [mL/min/kg] | half-life (Pharmacokinetic analysis; IV, 1 mg/kg) [h] | Vd (Pharmacokinetic analysis; IV, 1 mg/kg) [L/kg] | Cmax (Pharmacokinetic analysis; oral (i.g.), 2 mg/kg) [ng/mL] | Tmax (Pharmacokinetic analysis; oral (i.g.), 2 mg/kg) [h] | half-life (Pharmacokinetic analysis; oral (i.g.), 2 mg/kg) [h] | AUC0-∞ (Pharmacokinetic analysis; IV, 1 mg/kg) [ng·h/mL] | AUC0-∞ (Pharmacokinetic analysis; oral (i.g.), 2 mg/kg) [ng·h/mL] | stability of c-MYC against proteolysis (c-MYC) | AUC(0-inf) (Pharmacokinetic analysis; 1 mg/kg, IV, 1 mg/kg) [ng·h/mL] | AUC(0-inf) (Pharmacokinetic analysis; 2 mg/kg, oral, 2 mg/kg) [ng·h/mL]
1 | CCOC(=O)[C@]1(n2cnc3c(N4CCCCC4)nc(F)nc32)CSC[C@H]1O (racemic) [33a] | 0.27 ± 0.01 | 8.45 ± 1.03 | 21.1 ± 1.21 | 0.57 ± 0.13 | significantly delay the wound healing ability of HCT116 cells in a dose-dependent manner | increased the percentage of G2/M cells in a dose-dependent manner | significantly increased ROS levels in a dose-dependent manner | c-MYC, β-Catenin, and MAX were significantly decreased, whereas the expression of p21 increased significantly in a dose-dependent manner | 5.1 | 5 | 2.15 | 301 | 4 | 6.8 | 3270 | 3310 | increase the stability of c-MYC in the process of protease hydrolysis |  | 
2 | CCCSc1nc(F)nc2c1ncn2[C@@]1(C(=O)OCC)CSC[C@@H]1O (relative stereo) [36b] | 0.49 ± 0.08 | 14.1 ± 1.24 | 6.59 ± 1.36 | 0.85 ± 0.09 | significantly delay the wound healing ability of HCT116 cells in a dose-dependent manner | increased the percentage of G2/M cells in a dose-dependent manner | significantly increased ROS levels in a dose-dependent manner | c-MYC, β-Catenin, and MAX were significantly decreased, whereas the expression of p21 increased significantly in a dose-dependent manner | 1.89 | 4.9 | 3.54 | 276 | 4 | 4.1 |  |  | increase the stability of c-MYC in the process of protease hydrolysis | 8800 | 1800
